# Measured values: patent US10166237B2, “Compounds and methods for inducing chondrogenesis” (The Scripps Research Institute, priority 2011, dated 2019)
# Legend:
# female 129SVE mice = assay: surgically induced cartilage injury (ACL, MCL, MMTL transection); assay type: in vivo; conditions: IA injection days 7, 14 and 21
# Procedure: Surgical transection of the ACL, MCL, and MMTL was performed to induce cartilage injury in female 129SVE mice. Mice were dosed by IA injection on days 7, 14 and 21. The medial tibial plateaus from representative mice were assessed on day 28 (FIG. 4A). Histomorphometric analyses and grading by two blinded observers using a modified OARSI scoring system determined the joint severity scores of the […] tibial plateau on day 28 after surgical induction (FIG. 4B). At 28 days, peripheral blood was collected by retro-orbital bleeding and the serum was used to determine the cleaved type II collagen fragments (CTX-II levels) by ELISA (Serum Pre-Clinical Cartilaps, Immunodiagnostic Systems, Fountain Hills, Ariz.). n=15/treatment group (FIG. 4C).
# C57BL/10 mice = assay: collagenase VII-induced knee joint damage; assay type: in vivo; conditions: 10 μM intra-articular on days 7 and 21
# Procedure: IA injections of C57BL/10 mice with collagenase VII (12 U/knee) induced joint damage through digestion of the ligament of the knee. The mice were dosed intra-articularly on days 7 and 21 with 10 μM PRO1 or PBS. On day 56 the mice were euthanized for histopathological analyses. Parafin blocks were sectioned at 5 um and stained with Safranin O, and representative data was collected for the PBS- and PRO1-treated mice (FIG. 3A). The total medial tibial plateau joint score was determined by two blinded observers and averaged to represent the data shown here using the OARSI scoring system (FIG. 3B). Peripheral blood was collected from each mouse by retro-orbital bleeding on day 1, day 13 and day 56. The circulating COMP was determined by the Animal COMP ELISA kit according to the manufacturer's instructions (MDBioproducts, St Paul, Minn.). Pooled data, 10 mice/group (FIG. 3C).
# chondrocytes = assay: toxicity in chondrocytes; assay type: cell-based; conditions: 100 μM
# synovial fibroblasts = assay: toxicity in synovial fibroblasts; assay type: cell-based; conditions: 100 μM
# [1] = tested on: primary bovine chondrocytes; assay: inhibition of cytokine-induced nitric oxide release (Greiss reaction); assay type: cell-based
# Description: (§1) In the screen, hMSCs were used as a surrogate to future targeting of the resident MSCs with the cartilage joint. It was in that setting upon which we identified PRO1. In a joint injury, the primary cell type a therapeutic would have contact with is the chondrocyte. Although cartilage or chondrocyte-targeted screening has not lead to the development of a successful drug modifying osteoarthritis drug (DMOAD) to date, it is believed that a stem cell-based therapeutic would protect and even repair the existing chondrocytes. Therefore, protection of the articular chondrocytes and cartilage from a mature bovine knee was assessed. PRO1 and its analogues were incubated with primary bovine chondrocytes or cartilage explants cultures grown in the presence of TNFα and oncostatin M to mimic the cytokine-induced damage that can occur during OA. In the presence of the cytokine cocktail, in vitro cultured primary chondrocytes released 4-5 fold more nitric oxide (NO) than the untreated chondrocytes (50 μM vs 10 μM) as measured by the Greiss reaction. In cells treated with the cytokine cocktail and PRO1, the small molecule could effectively block the release of NO by up to 70% FIG. 2C). Similarly, in ex vivo treated cartilage explants, cytokine-induced release of glycosaminoglycans (GAG) was reduced by up to 60% by PRO1 (FIG. 2D). Finally, hMSC were grown in pellet culture for 21 days.
# (§2) Primary hMSCs were plated (10,000/well) in 384-well plates and cultured for 18 days. The cells were fixed with 4% formalin, permeabilized with triton (0.5%), digested with 0.5 mg/ml collagenase II to unwind the collagen fibrils, and then immunostained with an antibody recognizing type II collagen. DAPI (2 μg/ml) was added to visualize the nuclei. The chondrogenic nodules stained positive for type II collagen but lacked expression of type X collagen and osteocalcin, markers for chondrocyte hypertrophy and osteoblasts, respectively (not shown). 10,000 hMSCs (passages 3-5) were plated in Greiner 384-well low-bottom plates on day 1. The cells were allowed to adhere and stimulated for 48 hrs (days 2-3) with the indicated stimuli in MSC growth media (Millipore). The media was then removed and replaced with serum-free DMEM for an additional 16 days. This media was replenished on days 10 and 15 of the assay. Primary bovine chondrocytes were isolated from the articular surfaces from mature knees. After one week of culture, 8,500 cells were trypsinized and plated in Greiner 384-well white clear-bottom plates in growth media. […] 20 μl of the supernatant was mixed with 20 μl of the Greiss reagent and quantitated at 540 nm as described by the Promega kit instructions. Bovine cartilage explants (cut in circular explants in a 96 well plate) were cultured in the presence of 20 ng/ml TNFα and 10 ng/ml oncostatin M to induce GAG release for 72 hours (FIG. 2D). PRO1 was added at the indicated concentrations during the entire 72 hrs. […] Parafin sections were hydrated, incubated in low pH Antigen unmasking solution (Vector) at 90 C for 10 minutes, permeabilized with 0.1% collagenase II (only for the sections stained with type II collagen) for 10 minutes, blocked with CAS block for 10 minutes and then incubated with the primary antibody (type II collagen, aggrecan or Timp1) antibody (Abcam) overnight at 4 C. The antigens were visualized through standard ABC detection methods and developed with DAB. Representative of 3 sections stained/treatment group (independent experiments).
# hMSCs [2] = assay: toxicity in hMSCs; assay type: cell-based, human; conditions: 100 μM
# hMSCs [3] = assay: type II collagen expression in hMSC cultures (18 day assay); assay type: cell-based, human
# Procedure: The chondrogenic differentiation event was initiated quickly even though a fully differentiated chondrocyte phenotype cannot be assessed prior to 14 days in culture. In an 18 day assay, compound treatment was only required for the first 48 hrs and followed by removal and replacement of the media (in the absence of stimuli, FIG. 2B). The promotion of chondrogenic differentiation was not altered or enhanced upon longer treatment with the stimuli (data not shown).
# as §2
# hMSC = assay: type II collagen and aggrecan immunohistochemistry in hMSC pellet culture; assay type: cell-based, human; conditions: 21 days
# Description: as §1, with “In cells treated with the cytokine cocktail and PRO1, the small molecule could effectively block the release of NO by up to 70% FIG. 2C). Similarly, in ex vivo treated cartilage explants, cytokine-induced release of glycosaminoglycans (GAG) was reduced by up to 60% by PRO1 (FIG. 2D). Finally, hMSC were grown in pellet culture for 21 days.” left out
# Primary hMSCs were plated (10,000/well) in 384-well plates and cultured for 18 days. […] 20 μl of the supernatant was mixed with 20 μl of the Greiss reagent and quantitated at 540 nm as described by the Promega kit instructions. […]
# HEK 293 cells = assay: toxicity in HEK 293 cells; assay type: cell-based; conditions: 100 μM
compound,measurement,setting,value
O=C(O)c1ccccc1C(=O)Nc1ccc(-c2ccccc2)cc1 [AKT],cartilage damage,female 129SVE mice; day 28,Protection
same,CTX-II peptide in plasma,"female 129SVE mice; day 28, ELISA",Inhibition
same,circulating COMP levels,C57BL/10 mice; ELISA,Reduced
same,cartilage damage,C57BL/10 mice; day 56,Reduced Cartilage Damage
same,toxicity,chondrocytes,No toxicity
same,toxicity,synovial fibroblasts,No toxicity
same,block of cytokine-induced release of NO,"[1]; TNFα and oncostatin M cocktail, up to",up to 70%
same,IC50,"[1]; second value of the cell (after the slash), TNFα and oncostatin M, 48 hours, read-out: NO INHIBTION μM IC50",0.45 µM
same,toxicity,hMSCs [2],No toxicity
same,EC50,hMSCs [3],0.08 µM
same,induction of chondrogenic differentiation of hMSCs,"hMSCs [3]; compared with known inducers TGFβ3, BMP7 or BMP2, FIG. 2B",more potent and efficient
same,type II collagen and aggrecan expression,hMSC,increase type II collagen and aggrecan expression
same,Tmax,in vivo; 0.05 mg/kg,1 h
same,bioavailability,in vivo; 0.05 mg/kg,~22%
same,AUC(0-inf),"in vivo; 0.05 mg/kg, AUC0-inf",0.342 µM·h
same,Cmax,"in vivo; 0.05 mg/kg, Cmax",~100 nM
same,concentration at 1 h,"in vivo; 0.05 mg/kg, Plasma Conc.",134 nM
same,half-life,"in vivo; 0.05 mg/kg, T1/2",~2 h
same,concentration at 1 h,in vivo; Plasma Conc.,102 nM
same,concentration at 3 h,in vivo; Plasma Conc.,33.6 nM
same,concentration at 7 h,in vivo; Plasma Conc.,11.8 nM
same,toxicity,HEK 293 cells,No toxicity
